Measured values reported in patent publication US5480892A, “(N-phthalimidoalkyl)piperidines” (The Du Pont Merck Pharmaceutical Company, priority 1994, dated 1996).
Like-named read-outs stand apart in the source and are kept apart here.

Legend:
[1] = tested on: mescaline-induced scratching in mice; assay: Mescaline-Induced Scratching in Mice; format: in vivo, mouse (male CF1); conditions: Mus musculus, 0.75 h, mescaline 25 mg/kg orally, 10 mg/kg po, read-out: Inhibition of Mescaline Scratch (ED50 class)
Procedure: This is a modification of the procedure of Fellows and Cook (in Psychotropic Drugs, ed. by S. Garrattini and V. Ghatti, pp. 397-404, Elsevier, Amsterdam, 1957) and Deegan and Cook (J. Pharmacol. Exp. Ther. 122: 17A, 1958). Male CF1 Mice (Charles River) were injected orally with test compound and placed singly into square (13 cm) Plexiglass observation chambers. Twenty minutes later mice were injected orally with mescaline (25 mg/kg). Beginning 25 minutes after treatment with mescaline (45 minutes after treatment with test compound), scratching episodes were counted during a 5 minute observation period. A scratching episode is defined as a brief (1-2 sec) burst of scratching either the head or the ear with the hind foot.

Sigma receptor = target: T1, Sigma receptor (Cavia porcellus, UniProt Q60492); assay: Sigma Receptor Binding Assay; format: guinea pig (male Hartley), brain membranes
T1 construct: Brain membranes were prepared by the method of Tam; from tissue; host or cells: guinea pig whole brain membranes
T1 sequence (Q60492 whole entry): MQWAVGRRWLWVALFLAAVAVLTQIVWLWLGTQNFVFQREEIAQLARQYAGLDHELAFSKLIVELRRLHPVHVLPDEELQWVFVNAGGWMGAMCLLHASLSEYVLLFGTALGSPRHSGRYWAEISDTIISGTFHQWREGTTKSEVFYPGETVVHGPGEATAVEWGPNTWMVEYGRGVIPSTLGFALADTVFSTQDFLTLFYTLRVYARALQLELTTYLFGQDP
Procedure: Male Hartley guinea pigs (250-300 g, Charles River) were sacrificed by decapitation. […] Whole brains were homogenized (20 sec.) in 10 vol (wt/vol) of ice-cold 0.34 M sucrose with a Brinkmann Polytron (setting 8). The homogenate was centrifuged at 920×g for 10 min. The supernatant was centrifuged at 47,000×g for 20 min. The resulting membrane pellet was resuspended in 10 vol (original wt/vol) of 50 mM Tris HCl (pH 7.4) and incubated at 37° C. for 45 min to degrade and dissociate bound endogenous ligands. The membranes were then centrifuged at 47,000×g for 20 min and resuspended in 50 mM Tris HCl (50 mL per brain).
After 45 rain of incubation at room temperature, samples were filtered rapidly through Whatman GF/C glass filters under negative pressure, and washed 3 times with ice-cold Tris buffer (5 mL).
IC50 s were calculated from log-logit plots. Apparent Ki s were calculated from the equation, Ki =IC50 /[1+(L/Kd)], where L is the concentration of radioligand and Kd is its dissociation constant.

[2] = tested on: isolation-induced aggression in mice; assay: Isolation-Induced Aggression in Mice; format: in vivo, mouse (male Balb/c); conditions: for ED50: Mus musculus, po, 0.25 h, read-out: Inhibition of Isolation-induced Aggression (ED50 class); for inhibiting the isolation-induced aggressive behavior: statement on Table II
Procedure: Male Balb/c mice (Charles River) were used. […] Isolated mice failing to consistently attack an intruder were eliminated from the colony.
Drug testing was carried out by treating the isolated mice with test drugs or standards. Fifteen min after dosing with drugs by the oral route (p.o.), one isolated mouse was removed from its home cage and placed in the home cage of another isolate. Scoring was a yes or no response for each pair. A maximum of 3 min was allowed for an attack and the pair was separated immediately upon an attack. Selection of home cage and intruder mice was randomized for each test. Mice were treated and tested twice a week with at least a 2 day washout period between treatments.

Dopamine (D-2) receptor = target: T2, Dopamine (D-2) receptor (Cavia porcellus, UniProt H0VE83); assay: Dopamine Receptor Binding; format: guinea pig, striatum membranes; conditions: 0.15 nM [3H]spiperone, guinea pig striatum, pH 7.7, 15 min 37° C.; read-out: Receptor Binding Affinity Dopamine (D-2) (Ki class)
T2 construct: Membranes were prepared from guinea pig striatum; from tissue; host or cells: guinea pig striatum membranes
T2 sequence (H0VE83 1-446): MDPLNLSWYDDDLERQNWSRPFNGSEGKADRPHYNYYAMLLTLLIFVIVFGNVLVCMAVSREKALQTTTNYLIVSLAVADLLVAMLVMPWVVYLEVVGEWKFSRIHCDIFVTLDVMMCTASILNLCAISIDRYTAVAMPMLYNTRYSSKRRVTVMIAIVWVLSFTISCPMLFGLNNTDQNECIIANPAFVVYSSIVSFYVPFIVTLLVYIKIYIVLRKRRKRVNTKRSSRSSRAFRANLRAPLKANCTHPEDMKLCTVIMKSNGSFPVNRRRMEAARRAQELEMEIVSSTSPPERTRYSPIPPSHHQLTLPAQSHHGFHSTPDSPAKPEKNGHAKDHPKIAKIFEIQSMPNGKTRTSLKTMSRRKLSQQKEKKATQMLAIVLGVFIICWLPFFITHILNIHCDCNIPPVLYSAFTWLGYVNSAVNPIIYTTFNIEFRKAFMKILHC
Procedure: Membranes were prepared from guinea pig striatum by the method described for sigma receptor binding. The membranes were then resuspended in 50 mM Tris HCl (9 mL per brain).
Nonspecific binding was measured in the presence of 100 nM (+)-butaclamol After 15 min of incubation at 37° C. samples were filtered rapidly through Whatman GF/C glass filters under negative pressure, and washed three times with ice-cold binding buffer (5 mL).

in vivo = conditions: rat, po
catalepsy in rats [3] = conditions: rat, in vivo
[4] = tested on: PCP-induced turning behavior in rats; assay: PCP-Induced Turning Behavior in Rats; format: in vivo, rat (male Sprague-Dawley); conditions: for ED50: Rattus norvegicus, po, 6-OHDA lesioned rats, drug p.o. 20 min before, PCP 1.5 mg/kg s.c., read-out: Inhibition of PCP-induced Turning (ED50 class)
Procedure: Male Sprague-Dawley rats (CD/CR, Charles River), weighing 190-290 g, were used for surgery. In order to spare […] neurons, rats were injected with 25 mg/kg imipramine intraperitoneal (i.p.) 30 min before surgery. The rats were anesthetized with a 1:1.2 ratio mixture of Xylazine:Ketamine given 0.1 mL/100 g body weight intramuscular (i.m.). A Ringers-Wydaze (100:0.01) solution was given to prevent dehydration. Dopamine was depleted in the right striatum by injecting the neurotoxin 6-hydroxydopamine (6-OHDA) into the substantia nigra of the right cerebral hemisphere. Five mg of 6-OHDA was dissolved in 5 mL of a 0.04% ascorbic acid solution which had been deoxygenated with nitrogen. Five μL of the 6-OHDA solution was injected into the substantia nigra through a 26 gauge needle over a five min period. Stereotaxic injection coordinates were -2.5 mm posterior to bregma, -2.1 mm right of the midsagittal suture, and -8.6 mm below the skull surface with the incisor bar set at +5.0 mm. Following surgery they were given 10 days to recover while housed four per cage (45.0 L×20.0 H×26.0 W) with ALPHA-dri bedding and ad lib access to Pro-Lab rodent chow and deionized water. […] At all times they were housed in the animal care facility under a 12--12 hour light/dark cycle (light on at 6:00 h, light off at 18:00 h).
Rotation rate and direction were determined with Coulbourn Instruments Rotometry Monitors. Clockwise and counter clockwise rotations were recorded at 30 and 60 min intervals. The rats were examined for correct lesion location by testing for rotational activity induced by subcutaneous (s.c.) injections of 3.0 mg/kg D-amphetamine SO4, and 2.0 mg/kg PCP HCl, respectively. These drugs were administered in the following sequence: Amphetamine was given 30 sec before testing. […]
The data was analyzed with an analysis of variance statistical test, and individual comparisons of each dose of test drug to control were made with Dunnett's multiple range test. The ED50 was calculated with a Litchfield and Wilcoxon test using percent of control values.

catalepsy in rats [5] = assay: Induction of Catalepsy; conditions: statement on Table III
[6] = 1 nM (+)-[3H]SKF 10,047, guinea pig brain membranes, pH 7.4, 45 min room temperature, read-out: Receptor Binding Affinity Sigma (Ki class)
[7] = mice, p.o., 15 min after dosing

Row | SMILES | Ki (Sigma receptor; [6]) [nM] | ED50 [2, 7] [mg/kg] | Ki (Dopamine (D-2) receptor) [nM] | further results
1 | O=C1C2=C(CCCC2)C(c2ccccc2)N1CC1CCN(CCc2ccccc2)CC1 (stereo not drawn) [Example 134] | 31 to 100 |  |  | ED50 [1]: < 11 mg/kg
2 | O=C1C2=C(CCCC2)C(c2cccs2)N1CC1CCN(CCc2ccccc2)CC1 (stereo not drawn) [Example 142] | 1 to 30 |  |  | ED50 [1]: < 11 mg/kg
3 | Cc1ccc(C2C3=C(CCCC3)C(=O)N2CC2CCN(CCc3ccccc3)CC2)cc1 (stereo not drawn) [Example 143] |  | < 11 |  | ED50 [1]: < 11 mg/kg
4 | CC(C)CC1C2=C(CCCC2)C(=O)N1CC1CCN(CCc2ccccc2)CC1 (stereo not drawn) [Example 139] | 1 to 30 | < 11 |  | ED50 [1]: < 11 mg/kg
5 | O=C1[C@H]2CCCC[C@H]2C(=O)N1CC1CCN(CCc2ccccc2)CC1 [Example 3, 2-[1-(2-Phenylethyl)-4-piperidinylmethyl]-cis-3a,4,5,6,7,7a-hexahydro-1H-isoindole-1,3(2H)-dione] | 1 to 30 | 11 to 20 | > 500 | ED50 (in vivo): > 70 mg/kg; producing catalepsy (catalepsy in rats [3]): does not produce catalepsy; ED50 [4]: 21 to 70 mg/kg
6 | CCC(C)C1C2=C(CCCC2)C(=O)N1CC1CCN(CCc2ccccc2)CC1 (stereo not drawn) [Example 140] | 31 to 100 |  |  | ED50 [1]: < 11 mg/kg
7 | O=C1c2ccccc2C(=O)N1CCC1CCN(CCc2ccccc2)CC1 [Example 39] | 1 to 30 | 21 to 70 | > 500 | 
8 | O=C1[C@H]2CCCC[C@H]2C(=O)N1CC1CCN(CC2CCCCC2)CC1 [Example 15] | 1 to 30 |  | > 500 | inhibiting the isolation-induced aggressive behavior [2]: potent activities
9 | CCCCC1C2=C(CCCC2)C(=O)N1CC1CCN(CCc2ccccc2)CC1 (stereo not drawn) [Example 135] |  | < 11 |  | ED50 [1]: < 11 mg/kg
10 | CC1C2=C(CCCC2)C(=O)N1CC1CCN(CCc2ccc(F)cc2)CC1 (stereo not drawn) [Example 137] |  | < 11 |  | ED50 [1]: < 11 mg/kg
11 | O=C1C2=C(CCCC2)C(c2ccco2)N1CC1CCN(CCc2ccccc2)CC1 (stereo not drawn) [Example 141] | 1 to 30 |  |  | ED50 [1]: < 11 mg/kg
12 | CC1CC[C@@H]2C(=O)N(CC3CCN(CCc4ccccc4)CC3)C(=O)[C@@H]2C1 (stereo partly drawn) [Example 23] | 1 to 30 | 21 to 70 | > 500 | 
13 | O=C1[C@H]2CCCC[C@H]2C(=O)N1CC1CCN(CCC2CCCCC2)CC1 [Example 17] | 1 to 30 |  | > 500 | inhibiting the isolation-induced aggressive behavior [2]: potent activities
14 | CCCC1C2=C(CCCC2)C(=O)N1CC1CCN(CCc2ccccc2)CC1 (stereo not drawn) [Example 144] |  | < 11 |  | ED50 [1]: < 11 mg/kg
15 | O=C1[C@H]2CCCC[C@H]2C(=O)N1CC1(c2ccccc2)CCN(CCc2ccccc2)CC1 [Example 122, 2-[1-(2-Phenylethyl)-4-phenyl-4-piperidine-methyl]-cis-3a; 4,5,6,7,7a-hexalydro-1H-isoindole-1,3(2H)-dione] |  |  | > 500 | Ki (Sigma receptor): 1 to 30 nM
16 | O=C1C2=C(CCCC2)C(=O)N1CC1CCN(CCc2ccccc2)CC1 [Example 56] | 1 to 30 |  | > 500 | 
17 | O=C1[C@H]2CCCC[C@H]2C(=O)N1CC1CCN(Cc2ccccc2)CC1 [Example 14] | 1 to 30 |  | > 500 | 
18 | O=C1C2CC=CCC2C(=O)N1CC1CCN(CCc2ccccc2)CC1 (stereo not drawn) [Example 52] | 1 to 30 |  | > 500 | 
19 | O=C1C2C3CCC(C3)C2CN1CC1CCN(CCc2ccccc2)CC1 (stereo not drawn) [Example 54] | 31 to 100 |  | > 500 | 
20 | O=C1[C@H]2CCCC[C@H]2C(=O)N1CC1CCN(CCc2ccc(Cl)cc2)CC1 [Example 26] | 1 to 30 |  | > 500 | 

Row | SMILES | Ki (Sigma receptor; [6]) [nM] | ED50 [2, 7] [mg/kg] | Ki (Dopamine (D-2) receptor) [nM] | further results
21 | CC12CC=CCC1(C)C(=O)N(CC1CCN(CCc3ccccc3)CC1)C2=O (stereo not drawn) [Example 66] | 31 to 100 |  | > 500 | 
22 | O=C1C2C(c3ccccc3)CCC(c3ccccc3)C2C(=O)N1CC1CCN(CCc2ccccc2)CC1 (stereo not drawn) [Example 68] | 101 to 500 |  | > 500 | 
23 | O=C1c2ccccc2C(=O)N1CC1CCN(Cc2ccccc2)CC1 [Example 34] | 1 to 30 | 11 to 20 | > 500 | 
24 | CCCCCCC1C2=C(CCCC2)C(=O)N1CC1CCN(CCc2ccccc2)CC1 (stereo not drawn) [Example 138] | 1 to 30 | < 11 |  | ED50 [1]: < 11 mg/kg
25 | O=C(CCCN1CCC(O)(c2ccc(Cl)cc2)CC1)c1ccc(F)cc1 [haloperidol, reference compound] |  |  |  | ED50 (in vivo): < 11 mg/kg; ED50 [2]: < 11 mg/kg; inhibiting the isolation-induced aggressive behavior [2]: potent activities; ED50 [4]: < 11 mg/kg; inhibiting PCP-induced turning behavior ([4]; statement on Table III, rats): potent activity; producing catalepsy (catalepsy in rats [5]): very potent in producing catalepsy
26 | O=C1C2C3CCC(C4CCC43)C2C(=O)N1CC1CCN(CCc2ccccc2)CC1 (stereo not drawn) [Example 72] | 1 to 30 |  | 101 to 500 | 
27 | O=C1[C@H]2CCCC[C@H]2C(=O)N1CC1CCN(CCc2ccc(F)cc2)CC1 [Example 29] | 31 to 100 |  | > 500 | 
28 | O=C1c2ccccc2C(=O)N1CCCC1CCN(Cc2ccccc2)CC1 [Example 43] | 1 to 30 |  | > 500 | 
29 | O=C1C2CC(O)C(O)CC2C(=O)N1CC1CCN(CCc2ccccc2)CC1 (stereo not drawn) [Example 63] | > 500 |  | > 500 | 
30 | O=C1c2ccccc2C(=O)N1CCCC1=CCN(CCc2ccccc2)CC1 [Example 116] | 31 to 100 |  | > 500 | 
31 | O=C1[C@H]2CCCC[C@H]2C(=O)N1CC1(c2cccc(Cl)c2)CCN(CCc2ccccc2)CC1 [Example 123] |  |  | > 500 | Ki (Sigma receptor): 1 to 30 nM
32 | O=C1c2ccccc2C(=O)N1CCCC1CCCN(Cc2ccccc2)C1 (stereo not drawn) [Example 4, 2-[3-[1-(phenylmethyl)-3-piperidinyl]propyl]-1H-isoindole-1,3(2H)-dione] | 1 to 30 |  | > 500 | 
33 | O=C1C2=C(CCCC2)CN1CC1CCN(CCc2ccccc2)CC1 [Example 6, 2,3,4,5,6,7-hexahydro-2-[[1-(2-phenylethyl)-4-piperidinyl]methyl]-1H-isoindol-1-one] | 31 to 100 | 21 to 70 | > 500 | inhibiting the isolation-induced aggressive behavior [2]: potent activities
34 | O=C1C2=C(CCCC2)C(c2ccc(F)cc2)N1CC1CCN(CCc2ccccc2)CC1 (stereo not drawn) [Example 136] | 31 to 100 | < 11 |  | ED50 [1]: < 11 mg/kg
35 | O=C1c2ccccc2C(=O)N1CCC1=CCN(CCc2ccccc2)CC1 [Example 115] | 1 to 30 |  | > 500 | 
36 | O=C1[C@H]2CCCC[C@H]2C(=O)N1CC1CCN(CCc2ccc([N+](=O)[O-])cc2)CC1 [Example 27] | 1 to 30 |  | > 500 | 
37 | O=C1C2C3CCCC(CC3)C2C(=O)N1CC1CCN(CCc2ccccc2)CC1 (stereo not drawn) [Example 61] | 1 to 30 |  | > 500 | 
38 | O=C1c2ccccc2C(=O)N1CCC1CCN(Cc2ccccc2)CC1 [Example 38] | 1 to 30 |  | > 500 | 
39 | CC12CCCCC1C(=O)N(CC1CCN(CCc3ccccc3)CC1)C2=O (stereo not drawn) [Example 64] | 31 to 100 |  | > 500 | 
